According to ChEMBL document CHEMBL1201862, “PubChem BioAssay data set” (2004):
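Following 48 hours of exposure in 96-well plates, responses at five concentrations were used to interpolate endpoints linearly. GI50: concentration for 50% inhibition of growth.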 The source made the active and inactive calls. Rule as the data show it: active = GI50 up to about 1.1 µM and inactive = higher.

Key:
Test in all cases: DTP human tumour cell line panel, 48 h
BT-549 = system: BT-549
CCRF-CEM = system: CCRF-CEM
COLO 205 = system: COLO 205
HCC 2998 = system: HCC 2998
HCT-116 = system: HCT-116
HOP-62 = system: HOP-62
HT-29 = system: HT-29
Hs-578T = system: Hs-578T
K562 = system: K562
KM12 = system: KM12
M14 = system: M14
MCF7 = system: MCF7
NCI-H23 = system: NCI-H23
NCI-H460 = system: NCI-H460
OVCAR-4 = system: OVCAR-4
SF-268 = system: SF-268
SK-MEL-28 = system: SK-MEL-28
TK-10 = system: TK-10
UACC-62 = system: UACC-62

| SMILES | GI50 (BT-549) | GI50 (CCRF-CEM) | GI50 (COLO 205) | GI50 (HCC 2998) | GI50 (HCT-116) | GI50 (HOP-62) | GI50 (HT-29) | GI50 (Hs-578T) | GI50 (K562) | GI50 (KM12) | GI50 (M14) | GI50 (MCF7) | GI50 (NCI-H23) | GI50 (NCI-H460) | GI50 (OVCAR-4) | GI50 (SF-268) | GI50 (SK-MEL-28) | GI50 (TK-10) | GI50 (UACC-62) |
| --- | --- | --- | --- | --- | --- | --- | --- | --- | --- | --- | --- | --- | --- | --- | --- | --- | --- | --- | --- |
| O=C1Nc2ccc(Br)cc2/C1=N/S(=O)(=O)O | 34.8 µM (inactive) | 6.85 µM (inactive) | 46.8 µM (inactive) | 51.3 µM (inactive) | 10.6 µM (inactive) | 60.5 µM (inactive) | 40.1 µM (inactive) | > 100 µM (inactive) | 17.3 µM (inactive) | 28.4 µM (inactive) | 38.5 µM (inactive) | 17.8 µM (inactive) | 19.6 µM (inactive) | 29 µM (inactive) | 19 µM (inactive) | 62.8 µM (inactive) | 30.9 µM (inactive) | 14.5 µM (inactive) | 18.7 µM (inactive) |
| CC[C@@]1(O)C(=O)OCc2c1cc1n(c2=O)Cc2c-1nc1ccccc1c2/C=N\NC(=O)C(N)Cc1ccc(O)cc1 (stereo partly specified) | 1.9 µM (inactive) | < 0.0236 µM (active) | 12.6 µM (inactive) | 4.03 µM (inactive) | 0.804 µM (active) | 0.248 µM (active) | 1.36 µM (inactive) | 7.43 µM (inactive) | 0.531 µM (active) | 3.37 µM (inactive) | 0.587 µM (active) | 0.367 µM (active) | 0.233 µM (active) | 0.187 µM (active) | 6.61 µM (inactive) | 0.202 µM (active) | 6.24 µM (inactive) | > 31.6 µM (inactive) | 0.209 µM (active) |
| C=CC(Cl)(CBr)CCC(Br)=C(C)C (stereo unspecified) | 21.5 µM (inactive) | 26 µM (inactive) | 17.9 µM (inactive) | 23.6 µM (inactive) | 23.6 µM (inactive) | > 100 µM (inactive) | 19.5 µM (inactive) | 28.2 µM (inactive) | 31.2 µM (inactive) | 20.2 µM (inactive) | 25.5 µM (inactive) | 14.2 µM (inactive) | 25.9 µM (inactive) | 18.9 µM (inactive) | 20.8 µM (inactive) | 21 µM (inactive) | 20 µM (inactive) | 26.3 µM (inactive) | 18.6 µM (inactive) |
| Cc1nc2c(=O)[nH]c3ccc(Cl)cc3c2o1 | > 100 µM (inactive) | > 100 µM (inactive) | > 100 µM (inactive) | > 100 µM (inactive) | > 100 µM (inactive) | > 100 µM (inactive) | > 100 µM (inactive) | > 100 µM (inactive) | > 100 µM (inactive) | > 100 µM (inactive) | > 100 µM (inactive) | > 100 µM (inactive) | > 100 µM (inactive) | > 100 µM (inactive) | > 100 µM (inactive) | > 100 µM (inactive) |  | > 100 µM (inactive) | > 100 µM (inactive) |
| CCN(CC)C(=O)Cn1c(-c2ccccc2)cc2ccccc21 | 33 µM (inactive) | 24.3 µM (inactive) | 16.6 µM (inactive) | 78.7 µM (inactive) | 24.8 µM (inactive) | 57.5 µM (inactive) | 29 µM (inactive) | 33.5 µM (inactive) | 25.8 µM (inactive) | 38.3 µM (inactive) | 87.3 µM (inactive) | 33.5 µM (inactive) | 44.4 µM (inactive) | 36.4 µM (inactive) | 66.8 µM (inactive) | 29 µM (inactive) | 52.6 µM (inactive) | 34.9 µM (inactive) | > 10 µM (inactive) |
| O=c1[nH]cc(/N=C/c2cc(Cl)cc(Cl)c2O)c(=O)[nH]1 | 45.1 µM (inactive) | 20 µM (inactive) | 24.8 µM (inactive) | 33.3 µM (inactive) | 20.6 µM (inactive) | 26.1 µM (inactive) | 26.5 µM (inactive) | 21.4 µM (inactive) | 27.8 µM (inactive) | 24.2 µM (inactive) | 21 µM (inactive) | 25.8 µM (inactive) | 24.6 µM (inactive) | 39.9 µM (inactive) | 21.3 µM (inactive) | 14.2 µM (inactive) | 22.9 µM (inactive) | > 100 µM (inactive) | 26.5 µM (inactive) |
| N#Cc1c(-c2ccc(F)cc2)c(-c2ccc(F)cc2)nn(CCO)c1=O | 0.879 µM (active) | 0.564 µM (active) | 0.24 µM (active) | 0.605 µM (active) | 0.119 µM (active) | 0.493 µM (active) | 0.143 µM (active) | 0.885 µM (active) | 0.103 µM (active) | 0.126 µM (active) |  | 3.16 µM (inactive) | 0.948 µM (active) | 0.237 µM (active) | 1.32 µM (inactive) | 0.875 µM (active) | 17.8 µM (inactive) | 3.36 µM (inactive) | 0.14 µM (active) |
